In patent publication US6908591B2, “Methods for sterilizing biological materials by irradiation over a temperature gradient” (Clearant, Inc., priority 2002, dated 2005):

What was measured:
ACL collagen [1] = assay: Turbidity assay of collagen isolated from ACL irradiated in alcohols (Example 11); assay type: biochemical; details: even at 0.5 mg/ml
Description: 7. Turbidity assay was performed for these collagens using at [1 mg/ml].
A turbidity assay was performed for the collagen isolated from these ACL samples. Correlation was found between the ACL collagen before and after irradiation.

ACL collagen [2] = assay: SDS-PAGE densitometry of purified pepsin-digested collagen, ACL in alcohols irradiated at -80° C. to 50 kGy (Example 11); details: 1.53 kGy/hr
Description: This experiment was to determine whether alcohols can protect ACL tissue samples from γ-irradiation at −80° C. with 50 kGy. 1. […] 2. These samples were then incubated with different alcohols for 2 hr in a shaking incubator at 37° C. 3. After 2 hr incubation, these ACL tubes were decanted and fresh solutions were added to each ACL containing tubes and incubated overnight at −80° C. 4. These samples were irradiated with 0 and 50 kGy at 1.53 kGy/hr at NIST. 6. ACL were digested with pepsin and collagen purified by precipitating with salt. 8. Ran 10 μg of each purified pepsin-digested collages on 4-12% gel and quantified both alpha 1 and alpha 2 chains.

[3] = Description: • Tissue—Porcine Pulmonary Valve (PV) Heart valves were harvested prior to use and stored. • Tissue Preparation Reagents— • Polypropylene Glycol 400.
An additional 1 ml PPG was added and further water bath sonicated.
The 0.5M solution was soluble after a 20-30 minute water bath sonication.

[4] = system: Porcine Pulmonary Valve (PV) Heart valves; assay: HPLC and gel analysis of heart valve cusps gamma irradiated to 30 kGy at -20° C. (Example 1); details: 1.584 kGy/hr
Description: In this experiment, porcine heart valves were gamma irradiated in the presence of polypropylene glycol 400 (PPG400) and, optionally, a scavenger, to a total dose of 30 kGy (1.584 kGy/hr at −20° C.).
5. 1.2 ml of PPG were added to two tubes (one of these tubes was designated 0 kGy and the other tube was designated 30 kGy): • 1.2 ml of 125 mM Trolox C in PPG were added to another two tubes • 1.2 ml of SCb stabilizer mixture—comprising of 1.5 ml 125 mM Trolox C, 300 μl 1 M Lipoic Acid, 600 μl 0.5 M Coumaric Acid and 600 μl 0.5 M n-Propyl Gallate (Final concentrations: 62.5 mM, 100 mM, 100 mM and 100 mM respectively) were added to the final two tubes.
6. Tubes were incubated at 4° C., with rocking for about 60 hours.
Samples were irradiated at a rate of 1.584 kGy/hr at −20° C. to a total dose of 30 kGy.
3. Samples were weighed, transferred to hydrolysis vials and 6 N HCl added at a volume of 20 mg tissue/ml HCl:
4. Samples were hydrolyzed at 110° C. for approximately 23 hours.

[5] = system: porcine ACL extractable proteins; assay: Guanidine HCl extracts of freeze dried ACL irradiated to 45 kGy: SDS-PAGE, BCA assay, densitometry (Example 6); details: 45 kGy versus 0 kGy control
Description: Guanidine HCL extraction was done with 4 M GuHCl in 0.5 NaOAC pH 5.8 and 5 mM EDTA, 10 mM NEM, 5 mM Benzamidine and 1 mM PMSF to a final concentration of […] of extraction buffer. The samples were incubated at 4° C. on a nutator for 2 days.
A BCA assay was performed on the dialysates of the PPG+cocktail guanidine extracted samples to determine the total protein concentration in the samples.
Using BCA and SDS-PAGE on the PPG+Cocktail sample, guanidine extracts were evaluated based on SDS-PAGE of equal protein load. The protein concentrations were as follows:
Densitometry was performed on two different protein bands, as follows: […]

porcine AV heart valves = assay: HPLC analysis of frozen AV heart valve cusps irradiated to 30 kGy at -20° C. (Example 3); details: 1.584 kGy/hr
Description: In this experiment, frozen porcine AV heart valves soaked in various solvents were gamma irradiated to a total dose of 30 kGy at 1.584 kGy/hr at −20° C. 5. […] 6. Incubated tubes at 4° C. with nutating for ˜46 hours. 9. Frozen samples were then irradiated at −20° C. at a rate of 1.584 kGy/hr to a total dose of 30 kGy.

type I collagen [6] = assay: SDS-PAGE of type I collagen irradiated to 45 kGy with stabilizers (Example 17); details: gamma irradiation at -20° C.
Description: In this experiment, type I collagen at −20° C., −80° C. or freeze-dried at 4° C. were irradiated with gamma radiation to a total dose of 45 kGy in the presence of various stabilizers.
• 1M thiourea (Sigma T8656) in water; • 0.5M coumarin (Sigma CC4261) in ethanol; • 0.5M 0-coumaric acid (Sigma C4400) in ethanol; • 0.5M curcumin (Sigma C1386) in ethanol; • 1M L-cysteine (Sigma C6852) in water; • 1M 1,3-dimethyl-2-thiourea (Aldrich 534-13-4) in water; • 1M 2-mercaptoethylamine (Sigma M6500) in water; and • 1M 1,3-dimethylurea (Sigma D6254) in water. Phosphate buffer solution of 40 mM sodium phosphate and 100 mM NaCl; pH=7.66. Methods: The following samples were prepared to a final volume of 0.5 ml: • 1 mg/ml collagen in 5 mM acetic acid (control); • 1 mg/ml collagen+0.1 M coumaric acid; • 1 mg/ml collagen+5 mM curcumin; • 1 mg/ml collagen+0.1M L-cysteine; • 1 mg/ml collagen+0.1M 1,3-dimethyl-2-thiourea; • 1 mg/ml collagen+0.1M thiourea; • 1 mg/ml collagen+0.1M 2-mercaptoethylamine; and • 1 mg/ml collagen+0.1M 1,3-dimethylurea. The samples were irradiated as follows: • freeze-dried; temperature:4.7° C.; dose rate: 1.656 kGy/hr; total dose:45 kGy; • temperature:−20.5° C.; dose rate:1.537 kGy/hr; total does:45 kGy; and • […]; dose rate:1.530-1.528 kGy/hr;45 kGy. Following irradiation, the samples were analyzed by SDS-PAGE. Additionally, the samples were diluted 1:2 with water to give collagen concentrations of 0.5 mg/ml and a turbidity assay was performed to detect collagen fibril formation. Collagen fibril formation was initiated by adding 100 μl of phosphate buffer solution. The assay was done in triplicate using a microtiter plate reader at 340 nm wavelength.

type I collagen [7] = assay: Turbidity assay of collagen fibril formation after irradiation (Example 17); assay type: biochemical; details: 45 kGy
Description: Phosphate buffer solution of 40 mM sodium phosphate and 100 mM NaCl; pH=7.66. Methods: […] Following irradiation, the samples were analyzed by SDS-PAGE. Additionally, the samples were diluted 1:2 with water to give collagen concentrations of 0.5 mg/ml and a turbidity assay was performed to detect collagen fibril formation. Collagen fibril formation was initiated by adding 100 μl of phosphate buffer solution. The assay was done in triplicate using a microtiter plate reader at 340 nm wavelength.

ACL collagen [8] = assay: SDS-PAGE of purified pepsin-digested collagen, ACL in high salt, low salt, neutral or low pH irradiated at -80° C. to 50 kGy (Example 10)
Description: This experiment was to determine whether high salt, low salt, neutral pH and low pH treated ACL will help to deliver stabilizers into ACL tissue to protect it from γ-irradiation at -80° C. with 50 kGy. 1. Prepared stock solution 2M sodium ascorbate (Spectrum […], Lot#QP0839) in water. Samples were prepared with the following: • a) DPBS • b) DPBS/200 mM sodium ascorbate • c) 0.5N HOAc • d) 0.5N HOAc/200 mM sodium ascorbate • e) 20 mM sodium phosphate pH 7.6 • f) 20 mM sodium phosphate pH 7.6/200 mM sodium ascorbate • g) 20 mM sodium phosphate pH 7.6/1M NaCl • h) 20 mM sodium phosphate pH 7.6/1M NaCl/200 mM sodium ascorbate. 2. These samples were irradiated with 0 and 50 kGy at 1.53 kGy/hr at NIST. 4. ACL were digested with pepsin and collagen purified by precipitating with salt.

collagen = assay: Turbidity assay of liquid and gel collagen irradiated on dry ice (Example 18); assay type: biochemical; details: frozen on dry ice, 48.73 to 53.38 kGy
Description: The samples were gamma irradiated at […] (frozen on dry ice) at dose rates of […] to a total dose of 48.73 to 53.38 kGy. The irradiated samples were analyzed by SDS-PAGE. Additionally, the samples were diluted 1:2 with water to give collagen concentrations of 0.5 mg/ml and a turbidity assay was performed to detect collagen fibril formation. Collagen fibril formation was initiated by adding 100 μl of phosphate buffer solution. The assay was done in triplicate using a microtiter plate reader at 340 nm wavelength.

Molecule: CCO [ethanol]
- fibril formation in turbidity assay (ACL collagen [1]): could not form fibrils
- yield for 50 kGy ACL collagen based on the densitometry of alpha 1 and 2 chains (ACL collagen [2]): 77%

Molecule: O=C(O)/C=C/c1ccc(O)cc1 [Coumaric Acid]
- solubility of the stock solution in PPG [3]: not 100% soluble

Molecule: polypropylene glycol 400 [PPG 400]
- HPLC analysis, irradiated versus not irradiated heart valve [4]: nearly identical

Molecule: CCCOC(=O)c1cc(O)c(O)c(O)c1 [n-Propyl Gallate]
- solubility of the stock solution in PPG [3]: soluble

Molecule: OC[C@H]1O[C@H](O[C@H]2O[C@H](CO)[C@@H](O)[C@H](O)[C@H]2O)[C@H](O)[C@@H](O)[C@@H]1O [Trehalose, D(+)-trehalose]
- protection of guanidine extractable proteins by SDS-PAGE [5]: least protection

Molecule: C[S+](C)[O-] [DMSO, dimethyl sulfoxide]
- HPLC analysis, preservation of peaks after irradiation (porcine AV heart valves; listed as 20% DMSO): reproduced these peaks more faithfully
- HPLC analysis, preservation of peaks after irradiation (porcine AV heart valves; listed as 50% DMSO): slightly more effective

Molecule: Cc1c(C)c2c(c(C)c1O)CCC(C)(C(=O)O)O2 (stereo not shown) [Trolox C, 6-hydroxy-2,5,7,8-tetramethylchroma-2 carboxylic acid]
- solubility of the stock solution in PPG [3]: not soluble
- soluble at (in PPG) [3]: 125 mM

Molecule: CC(O)C(C)O (stereo not shown) [butanediol, 2,3-butanediol]
- yield for 50 kGy ACL collagen based on the densitometry of alpha 1 and 2 chains (ACL collagen [2]): 88%

Molecule: CC(O)CO (stereo not shown) [propanediol, 1,2-propanediol]
- fibril formation in turbidity assay (ACL collagen [1]): could not form fibrils

Molecule: NCCS [2-mercaptoethylamine]
- protective effect on collagen (type I collagen [6]): less than that observed with thiourea and 1,3-dimethyl-2-thiourea
- fibril formation after irradiation (turbidity assay) (type I collagen [7]; irradiated at -80° C.): could form fibrils after irradiation

Molecule: N[C@@H](Cc1c[nH]cn1)C(=O)O [histidine, L-histidine]
- protection of guanidine extractable proteins by SDS-PAGE [5]: most promising results

Molecule: CC(=O)O [0.5N HOAc, acetic acid]
- yield of purified pepsin-digested collagen at 50 kGy (ACL collagen [8]; without ascorbate, -80° C.): 73%

Molecule: CNC(=O)NC [1,2-dimethylurea, 1,3-dimethylurea]
- protective effect on collagen (type I collagen [6]): less than that observed with thiourea and 1,3-dimethyl-2-thiourea

Molecule: CNC(=S)NC [1,3-dimethyl-2-thiourea]
- fibril formation after irradiation (turbidity assay) (type I collagen [7]): could form fibrils after irradiation
- fibril formation after irradiation (turbidity assay) (type I collagen [7]; irradiated at -80° C.): could form fibrils after irradiation

Molecule: COc1cc(/C=C/C(=O)CC(=O)/C=C/c2ccc(O)c(OC)c2)ccc1O [curcumin]
- protective effect on collagen (type I collagen [6]): less than that observed with thiourea and 1,3-dimethyl-2-thiourea

Molecule: N[C@@H](CS)C(=O)O [cysteine, L-cysteine]
- protective effect on collagen (type I collagen [6]): less than that observed with thiourea and 1,3-dimethyl-2-thiourea
- fibril formation after irradiation (turbidity assay) (type I collagen [7]; irradiated at -80° C.): could form fibrils after irradiation

Molecule: O=C1O[C@H]([C@@H](O)CO)C([O-])=C1O.[Na+] [ascorbate, sodium ascorbate]
- yield of purified pepsin-digested collagen at 50 kGy (ACL collagen [8]; with ascorbate (200 mM) in 20 mM sodium phosphate pH 7.6 without salt, -80° C.): 75%
- yield of purified pepsin-digested collagen at 50 kGy (ACL collagen [8]; with ascorbate (200 mM) in 0.5N HOAc pH 3.4, -80° C.): 83%
- yield of purified pepsin-digested collagen at 50 kGy (ACL collagen [8]; with ascorbate (200 mM) in high salt (20 mM sodium phosphate pH 7.6/1M NaCl), -80° C.): 40%
- protection of guanidine extractable proteins by SDS-PAGE [5]: most promising results
- protection of gel or liquid collagen (turbidity assay) (collagen): most effective

Molecule: C[N+](C)(C)[C@@H](Cc1c[nH]c(=S)[nH]1)C(=O)[O-] [ergothionine]
- protection of guanidine extractable proteins by SDS-PAGE [5]: good protection of proteins in the lower ⅔ of the gel
